According to US6638964B2, “Sulfonamide-containing indole compounds” (Eisai Co., Ltd., priority 1999, dated 2003):
≈ marks a conversion by molar mass, not a printed value.

Key:
[1] = test system: Endothelial cells derived from human umbilical vein (HUVEC); assay: Inhibitory effect of growth of endothelial cells (MTT method); type: cell-based; settings: 72 h, incubating for three days
Procedure: Endothelial cells derived from human umbilical vein (HUVEC; manufactured by Sanko Junyaku) incubated in an EGM medium (manufactured by Sanko Junyaku) containing 100 Units of penicillin and 100 μg/ml of streptomycin were adjusted to 0.8-1×10^4 cells/ml and each 100 μl were separately placed on a 96-well plate. After incubating in a CO2 incubator (5% CO2) at 37 ° C. overnight, 100 μl of EGM medium containing test compound diluted in a three-fold manner were added thereto followed by incubating for three days. The cell numbers at that time were measured by MTT method. That is, 50 μl of phosphate buffer containing 0.33% of 3-(4,5-dimethylthiazol-2-yl)-2,5-diphenyltetrazolium bromide (MTT) was added thereto and incubation was continued for 3-4 hours. Then, after the supernatant liquid of the culture was removed, 100 μl of dimethyl sulfoxide (DMSO) was added to dissolve a formazane which was formed in the cells and the absorbance at the wave length of 540 nm was measured by use of plate reader (manufactured by Corona Denki).
(§1) Inhibiting rate was calculated from the following formula and 50% inhibiting concentration (IC50) was determined for each compound.
Inhibition Rate (%)=(C−T)/C×100
(§2) C: Absorbance when no compound was added
(§3) T: Absorbance when a compound was added

[2] = test system: aorta pieces of rat; assay: Antiangiogenic effect: capillary formation from rat aorta pieces incubated in collagen; type: cell-based; settings: numbers of capillaries formed around the aorta, 7th day from addition of test compound
Procedure: The inhibition degree of angiogenesis which was observed when aorta pieces of rat were incubated in collagen was defined as an antiangiogenic effect. That is, the aorta excised from male rat of Sprague-Dawley strain (10-12 weeks age) was washed with a Hanks' solution so that fat tissues around there were removed minutely. The aorta was incised to prepare pieces of 2 mm square and they were allowed to stand in a 24-well plate holding the endothelial cells upside. Then, 500 μl of neutralized Type I collagen (Cell Matrix Type I-A; manufactured by Nitta Gelatin) were poured over each well and allowed to stand at room temperature for about 20 minutes in a clean bench to solidify the gel. After confirming that the gel was solidified, 500 μl of MCDB 131 medium (manufactured by Chlorella Kogyo) were added thereto followed by incubating in a CO2 incubator (5% CO2) at 37° C. On the next day, the culture medium was exchanged with 500 μl of MCDB 131 medium containing the test compound and the incubation was continued. After three days, the medium was again exchanged with 500 μl of MCDB 131 medium containing the test compound and, at the stage of the 7th day from the initiation of addition of the test compound, numbers of capillaries formed around the aorta were counted under a microscope. The solution containing the test compound was prepared in a three-fold dilution system where 10 μg/ml was the highest concentration.
Inhibiting rate was calculated from the following formula and 50% inhibiting concentration (IC50) for each test compound was determined.
(§4) Inhibiting Rate (%)=(C−T)/C^×100
C: Numbers of capillaries when no compound was added
T: Numbers of capillaries when a compound was added

[3] = test system: KP-1 cell strain derived from human pancreatic cancer; assay: Antitumor effect, KP-1 human pancreatic cancer subcutaneously transplanted to nude mice; type: in vivo, nude mice (KSN); settings: for size of the tumor compared with that in the group to which no drug was administered: 22nd day, KP-1
Procedure: (§5) In the meanwhile, evaluation of an antitumor effect was carried out in accordance with a method of Koyanagi, et al. (Cancer Res., 94, 1702-1706, 1994) using a KP-1 cell strain derived from human pancreatic cancer and an HCT 116 cell strain derived from human cancer of the colon. The above-mentioned human cancer cells (5^×10^6 cells) were subcutaneously transplanted to nude mice (KSN) of 6 to 7 weeks age and, since the stage where it became to the size of about 100 mm^3, administration of the compound of the present invention was started. In the experiments, ten mice were used for a group to which no drug was administered while, in a drug-administered group, five mice were used for each dose. The dose of 50 mg/kg, 100 mg/kg or 200 mg/kg was continuously administered per os two times a day and the size of the tumor on the 22nd day from the beginning of the administration was compared with that in the group to which no drug was administered. The result was 37%, 30% and 11%, respectively in the KP-1 cell strain derived from human pancreatic cancer and 0.2%, 0.3% and 0.0%, respectively in the HCT 116 cell strain derived from human cancer of the colon in the case of a group to which the compound of Example 1 was administered for example.

[4] = test system: HCT 116 cell strain derived from human cancer of the colon; assay: Antitumor effect, HCT 116 human colon cancer subcutaneously transplanted to nude mice; type: in vivo, nude mice (KSN); settings: 22nd day
Procedure: as §5

[5] = test system: Mouse B16 melanoma cells; assay: Inhibitory effect of proliferation of mouse B16 melanoma (MTT method); type: cell-based; settings: 72 h, incubating for 3 days
Procedure: Mouse B16 melanoma cells incubated in a Dulbecco-modified Eagle medium (DMED; manufactured by Nissui Seiyaku) containing 10% of fetal bovine serum, 100 Units/ml of penicillin and 100 μg/ml of streptomycin were adjusted to 2^×10^4 cells/ml and each 100 μl thereof were separately placed on a 96-well plate. After an incubation was carried out in a CO2 incubator (5% CO2) at 37° C. for one night, then 100 μl of the above culture containing a test compound diluted in a 3-fold series were added thereto followed by incubating for 3 days and the cell numbers at that time were measured by an MTT method. Incidentally, a treatment with a 0.33% MTT solution was carried out for 1-2 hour(s).
as §1, §4, §2, §3

[6] = 50 mg/kg per os two times a day
[7] = 100 mg/kg per os two times a day
[8] = 200 mg/kg per os two times a day

SMILES | IC50 [2] [mg/L] | IC50 [5] [mg/L] | IC50 [1] [mg/L] | size of the tumor compared with that in the group to which no drug was administered [3, 6] [%] | size of the tumor compared with that in the group to which no drug was administered [3, 7] [%] | size of the tumor compared with that in the group to which no drug was administered [3, 8] [%] | antitumor effect ([3]; overall statement for KP-1 and HCT 116 transplanted nude mice) | size of the tumor compared with that in the group to which no drug was administered [4, 6] [%] | size of the tumor compared with that in the group to which no drug was administered [4, 7] [%] | size of the tumor compared with that in the group to which no drug was administered [4, 8] [%]
Cc1ccc(NS(=O)(=O)c2cccc(C#N)c2)c2[nH]cc(C#N)c12 [Example 1, 3-Cyano-N-(3-cyano-4-methyl-1H-indol-7-yl)benzenesulfonamide] | 0.08 (≈ 0.238 µM) | 10 (≈ 29.7 µM) | 0.1 (≈ 0.297 µM) | 37 | 30 | 11 | significant antitumor effect | 0.2 | 0.3 | 0.0
Cc1ccc(NS(=O)(=O)c2ccc(Cl)nc2)c2[nH]cc(C#N)c12 [Example 2, 6-Chloro-N-(3-cyano-4-methyl-1H-indol-7-yl)-3-pyridinesulfonamide] | 0.07 (≈ 0.202 µM) | 15 (≈ 43.3 µM) | 0.12 (≈ 0.346 µM) | – | – | – | – | – | – | –
Cc1cc(NS(=O)(=O)c2ccc(S(N)(=O)=O)cc2)c2[nH]cc(Br)c2c1 [Example 3, N-(3-Bromo-5-methyl-1H-indole-7-yl)-4-sulfamoylbenzenesulfonamide] | 0.1 (≈ 0.225 µM) | 21 (≈ 47.3 µM) | 0.62 (≈ 1.4 µM) | – | – | – | – | – | – | –
Nc1ccc(S(=O)(=O)Nc2cc(Br)cc3c(Cl)c[nH]c23)cn1 [Example 4, 6-Amino-N-(5-bromo-3-chloro-1H-indole-7-yl)-3-pyridinesulfonamide] | 0.1 (≈ 0.249 µM) | 19 (≈ 47.3 µM) | 1.3 (≈ 3.24 µM) | – | – | – | – | – | – | –
Cc1cc(NS(=O)(=O)c2cccc(C#N)c2)c2[nH]cc(Br)c2c1 [Example 5, N-(3-Bromo-5-methyl-1H-indole-7-yl)-3-cyanobenzenesulfonamide] | 0.15 (≈ 0.384 µM) | 8.8 (≈ 22.5 µM) | 0.98 (≈ 2.51 µM) | – | – | – | – | – | – | –

Continued, in another order:

IC50 [2] [mg/L] | IC50 [5] [mg/L] | SMILES | IC50 [1] [mg/L] | size of the tumor compared with that in the group to which no drug was administered [3, 6] [%] | size of the tumor compared with that in the group to which no drug was administered [3, 7] [%] | size of the tumor compared with that in the group to which no drug was administered [3, 8] [%] | antitumor effect ([3]; overall statement for KP-1 and HCT 116 transplanted nude mice) | size of the tumor compared with that in the group to which no drug was administered [4, 6] [%] | size of the tumor compared with that in the group to which no drug was administered [4, 7] [%] | size of the tumor compared with that in the group to which no drug was administered [4, 8] [%]
0.06 (≈ 0.159 µM) | 6.5 (≈ 17.3 µM) | N#Cc1ccc(S(=O)(=O)Nc2ccc(Br)c3cc[nH]c23)cc1 [Example 6, N-(4-Bromo-1H-indole-7-yl)-4-cyanobenzenesulfonamide] | 1.2 (≈ 3.19 µM) | – | – | – | – | – | – | –
0.42 (≈ 1.3 µM) | 7.5 (≈ 23.2 µM) | Nc1ccc(S(=O)(=O)Nc2ccc(Cl)c3cc[nH]c23)cn1 [Example 7, 6-Amino-N-(4-chloro-1H-indole-7-yl)-3-pyridinesulfonamide] | 0.98 (≈ 3.04 µM) | – | – | – | – | – | – | –
0.05 (≈ 0.124 µM) | 19 (≈ 47.3 µM) | Nc1ccc(S(=O)(=O)Nc2ccc(Cl)c3c(Br)c[nH]c23)cn1 [Example 8, 6-Amino-N-(3-bromo-4-chloro-1H-indole-7-yl)-3-pyridinesulfonamide] | 0.49 (≈ 1.22 µM) | – | – | – | – | – | – | –
0.05 (≈ 0.126 µM) | 8.4 (≈ 21.2 µM) | Cc1cc(NS(=O)(=O)c2ccc(C#N)s2)c2[nH]cc(Br)c2c1 [Example 9, N-(3-Bromo-5-methyl-1H-indole-7-yl)-5-cyano-2-thiophenesulfonamide] | 1.6 (≈ 4.04 µM) | – | – | – | – | – | – | –
0.06 (≈ 0.149 µM) | 23 (≈ 57.1 µM) | Nc1ncc(S(=O)(=O)Nc2ccc(Br)c3c(Cl)c[nH]c23)cn1 [Example 10, 2-Amino-N-(4-bromo-3-chloro-1H-indole-7-yl)-5-pyrimidinesulfonamide] | 0.38 (≈ 0.944 µM) | – | – | – | – | – | – | –
